The text below walks through data of US10947227B2, “Tricyclic heterocyclic compounds as sting activators” (Incyte Corporation, priority 2018, dated 2021).

SMILES strings stand for the structures.

This test relates to IRF3 activation in THP-1 Dual Cells. Briefly: IRF3 activation assay in THP-1 Dual Cells (QUANTI-Blue readout). The test is classed as cell-based. The following applies: Homo sapiens, THP1-Dual, 24 h, Table 2, 24 hours incubation. The method, then:
THP-1 Dual Cells (Invivogen) were maintained in RPMI1640 medium with addition of 10% FBS, 100 μg/ml zeocin, 10 μg/ml blasticidin. Cells were added in a 96-well flat bottom assay plate at 100,000 per well in 100 μL complete RPMI medium. Test compounds were prepared by serial dilution in complete RPMI medium and 100 μL test compounds were transferred to each corresponding well. The assay plate was incubated at 37° C., 5% CO2 for 24 hours. After the overnight incubation, 20 μL of the culture supernatants were collected, followed by addition of 180 μL of QUANTI-Blue (Invivogen) to assess IRF3 activity. The amount of IRF3 activation was assessed by reading the absorbance at 620-655 nm with a microplate reader 2 hours later. The culture supernatant from the untreated THP-1 cells was used as the negative control. To determine the NF-κB activation, another 20 μL of culture supernatant were transferred to a 96-well white plate, followed by addition of 50 μL of Quanti-Luc™ assay solution (Invivogen). The amount of NF-κB activation induced by the test compounds were determined by the luminescence above the untreated control. EC50 determination was performed by fitting the curve of percent control activity versus the log of the compound concentration using the GraphPad Prism 6.0 software.
As to `CCn1nc(C)cc1C(=O)Nc1nc2cc(C(N)=O)cc(OC(C)C)c2n1C/C=C/Cn1c2nc(-c3cc(C)nn3CC)ncc2c2cc(C(N)=O)cc(OCCCOC)c21` [Example 30, (E)-9-(4-(5-carbamoyl-2-(1-ethyl-3-methyl-1H-pyrazole-5-carboxamido)-7-isopropoxy-1H-benzo[d]imidazol-1-yl)but-2-en-1-yl)-2-(1-ethyl-3-methyl-1H-pyrazol-5-yl)-8-(3-methoxypropoxy)-9H-pyrimido[4,5-b]indole-6-carboxamide], the concentration for a half-maximal effect (EC50) was 0.05 to 0.2 µM.
Compound `CCn1nc(C)cc1C(=O)Nc1nc2cc(C(N)=O)cc(OCCCN3CCN(C)CC3)c2n1C/C=C/Cn1c2nc(-c3cc(C)nn3CC)ncc2c2cc(C(N)=O)cc(OCCCOC)c21` [Example 31, (E)-9-(4-(5-carbamoyl-2-(1-ethyl-3-methyl-1H-pyrazole-5-carboxamido)-7-(3-(4-methylpiperazin-1-yl)propoxy)-1H-benzo[d]imidazol-1-yl)but-2-en-1-yl)-2-(1-ethyl-3-methyl-1H-pyrazol-5-yl)-8-(3-methoxypropoxy)-9H-pyrimido[4,5-b]indole-6-carboxamide] yielded a half-maximal effective concentration (EC50) of 0.05 to 0.2 µM.
The figure for `CCn1nc(C)cc1C(=O)Nc1nc2cc(C(N)=O)cc(OCCCO)c2n1C/C=C/Cn1c2ccc(C(N)=O)cc2c2cc(F)c(-c3cc(C)nn3CC)nc21` [Example 32, (E)-9-(4-(5-carbamoyl-2-(1-ethyl-3-methyl-1H-pyrazole-5-carboxamido)-7-(3-hydroxypropoxy)-1H-benzo[d]imidazol-1-yl)but-2-en-1-yl)-2-(1-ethyl-3-methyl-1H-pyrazol-5-yl)-3-fluoro-9H-pyrido[2,3-b]indole-6-carboxamide] is < 0.05 µM; for `CCn1nc(C)cc1C(=O)Nc1nc2cc(C(N)=O)cc(OCCCN)c2n1C/C=C/Cn1c2nc(-c3cc(C)nn3CC)ncc2c2cc(C(N)=O)cc(OCCCOC)c21` [Example 33, (E)-9-(4-(7-(3-aminopropoxy)-5-carbamoyl-2-(1-ethyl-3-methyl-1H-pyrazole-5-carboxamido)-1H-benzo[d]imidazol-1-yl)but-2-en-1-yl)-2-(1-ethyl-3-methyl-1H-pyrazol-5-yl)-8-(3-methoxypropoxy)-9H-pyrimido[4,5-b]indole-6-carboxamide] it is 0.5 to 1 µM; for `CCn1nc(C)cc1C(=O)Nc1nc2cc(C(N)=O)cc(OCCO)c2n1C/C=C/Cn1c2nc(-c3cc(C)nn3CC)ncc2c2cc(C(N)=O)cc(OCCCOC)c21` [Example 36, (E)-9-(4-(5-carbamoyl-2-(1-ethyl-3-methyl-1H-pyrazole-5-carboxamido)-7-(2-hydroxyethoxy)-1H-benzo[d]imidazol-1-yl)but-2-en-1-yl)-2-(1-ethyl-3-methyl-1H-pyrazol-5-yl)-8-(3-methoxypropoxy)-9H-pyrimido[4,5-b]indole-6-carboxamide] it is < 0.05 µM.
In turn, `CCn1nc(C)cc1C(=O)Nc1nc2cc(C(N)=O)cc(OCCCNC(=O)[C@H](CC(=O)O)NC(=O)[C@H](CC(=O)O)NC(=O)[C@H](CCCNC(=N)N)NC(=O)[C@@H](N)CC(=O)O)c2n1C/C=C/Cn1c2nc(-c3cc(C)nn3CC)ncc2c2cc(C(N)=O)cc(OCCCOC)c21` [Example 37, (6S,9S,12S,15S)-15-amino-1-((5-carbamoyl-1-((E)-4-(6-carbamoyl-2-(1-ethyl-3-methyl-1H-pyrazol-5-yl)-8-(3-methoxypropoxy)-9H-pyrimido[4,5-b]indol-9-yl)but-2-en-1-yl)-2-(1-ethyl-3-methyl-1H-pyrazole-5-carboxamido)-1H-benzo[d]imidazol-7-yl)oxy)-6,9-bis(carboxymethyl)-12-(3-guanidinopropyl)-5,8,11,14-tetraoxo-4,7,10,13-tetraazaheptadecan-17-oic Acid] returned an EC50 of 0.2 to 0.5 µM.
Compound `CCn1nc(C)cc1C(=O)Nc1nc2cc(C(N)=O)cc(OCCN3CCOCC3)c2n1C/C=C/Cn1c2nc(-c3cc(C)nn3CC)ncc2c2cc(C(N)=O)cc(OCCCOC)c21` [Example 38, (E)-9-(4-(5-carbamoyl-2-(1-ethyl-3-methyl-1H-pyrazole-5-carboxamido)-7-(2-morpholinoethoxy)-1H-benzo[d]imidazol-1-yl)but-2-en-1-yl)-2-(1-ethyl-3-methyl-1H-pyrazol-5-yl)-8-(3-methoxypropoxy)-9H-pyrimido[4,5-b]indole-6-carboxamide] yielded a half-maximal effective concentration (EC50) of 0.05 to 0.2 µM.
As to `CCn1nc(C)cc1C(=O)Nc1nc2cc(C(N)=O)cc(OCCCNC(=O)OCCC(=O)O)c2n1C/C=C/Cn1c2nc(-c3cc(C)nn3CC)ncc2c2cc(C(N)=O)cc(OCCCOC)c21` [Example 39, (E)-3-(((3-((5-carbamoyl-1-(4-(6-carbamoyl-2-(1-ethyl-3-methyl-1H-pyrazol-5-yl)-8-(3-methoxypropoxy)-9H-pyrimido[4,5-b]indol-9-yl)but-2-en-1-yl)-2-(1-ethyl-3-methyl-1H-pyrazole-5-carboxamido)-1H-benzo[d]imidazol-7-yl)oxy)propyl)carbamoyl)oxy)propanoic Acid], the half-maximal effective concentration (EC50) is < 0.05 µM.
The figure for `CCn1nc(C)cc1C(=O)Nc1nc2cc(C(N)=O)cc(OCCCNC(=O)OCC(=O)O)c2n1C/C=C/Cn1c2nc(-c3cc(C)nn3CC)ncc2c2cc(C(N)=O)cc(OCCCOC)c21` [Example 40, (E)-2-(((3-((5-carbamoyl-1-(4-(6-carbamoyl-2-(1-ethyl-3-methyl-1H-pyrazol-5-yl)-8-(3-methoxypropoxy)-9H-pyrimido[4,5-b]indol-9-yl)but-2-en-1-yl)-2-(1-ethyl-3-methyl-1H-pyrazole-5-carboxamido)-1H-benzo[d]imidazol-7-yl)oxy)propyl)carbamoyl)oxy)acetic Acid] is < 0.05 µM; for `CCn1nc(C)cc1C(=O)Nc1nc2cc(C(N)=O)cc(OCCCNC(=O)NCC(=O)O)c2n1C/C=C/Cn1c2nc(-c3cc(C)nn3CC)ncc2c2cc(C(N)=O)cc(OCCCOC)c21` [Example 41, (E)-((3-((5-carbamoyl-1-(4-(6-carbamoyl-2-(1-ethyl-3-methyl-1H-pyrazol-5-yl)-8-(3-methoxypropoxy)-9H-pyrimido[4,5-b]indol-9-yl)but-2-en-1-yl)-2-(1-ethyl-3-methyl-1H-pyrazole-5-carboxamido)-1H-benzo[d]imidazol-7-yl)oxy)propyl)carbamoyl)glycine] it is < 0.05 µM; for `CCn1nc(C)cc1C(=O)Nc1nc2cc(C(N)=O)cc(OCCCNC(=O)[C@@H](N)CC(=O)O)c2n1C/C=C/Cn1c2nc(-c3cc(C)nn3CC)ncc2c2cc(C(N)=O)cc(OCCCOC)c21` [Example 42, (S,E)-3-amino-4-((3-((5-carbamoyl-1-(4-(6-carbamoyl-2-(1-ethyl-3-methyl-1H-pyrazol-5-yl)-8-(3-methoxypropoxy)-9H-pyrimido[4,5-b]indol-9-yl)but-2-en-1-yl)-2-(1-ethyl-3-methyl-1H-pyrazole-5-carboxamido)-1H-benzo[d]imidazol-7-yl)oxy)propyl)amino)-4-oxobutanoic Acid] it is 0.05 to 0.2 µM.
The figure for `CCn1nc(C)cc1C(=O)Nc1nc2cc(C(N)=O)cc(OCCCOC(=O)NCCC(=O)O)c2n1C/C=C/Cn1c2nc(-c3cc(C)nn3CC)ncc2c2cc(C(N)=O)cc(OCCCOC)c21` [Example 43, (E)-3-(((3-((5-carbamoyl-1-(4-(6-carbamoyl-2-(1-ethyl-3-methyl-1H-pyrazol-5-yl)-8-(3-methoxypropoxy)-9H-pyrimido[4,5-b]indol-9-yl)but-2-en-1-yl)-2-(1-ethyl-3-methyl-1H-pyrazole-5-carboxamido)-1H-benzo[d]imidazol-7-yl)oxy)propoxy)carbonyl)amino)propanoic Acid] is < 0.05 µM; for `CCn1nc(C)cc1C(=O)Nc1nc2cc(C(N)=O)cc(OCCOCCOCCC(=O)O)c2n1C/C=C/Cn1c2nc(-c3cc(C)nn3CC)ncc2c2cc(C(N)=O)cc(OCCCOC)c21` [Example 44, (E)-3-(2-(2-((5-carbamoyl-1-(4-(6-carbamoyl-2-(1-ethyl-3-methyl-1H-pyrazol-5-yl)-8-(3-methoxypropoxy)-9H-pyrimido[4,5-b]indol-9-yl)but-2-en-1-yl)-2-(1-ethyl-3-methyl-1H-pyrazole-5-carboxamido)-1H-benzo[d]imidazol-7-yl)oxy)ethoxy)ethoxy)propanoic Acid] it is < 0.05 µM.
In the case of `CCn1nc(C)cc1C(=O)Nc1nc2cc(C(N)=O)cc(OCCCNS(=O)(=O)CCCC(=O)O)c2n1C/C=C/Cn1c2nc(-c3cc(C)nn3CC)ncc2c2cc(C(N)=O)cc(OCCCOC)c21` [Example 45, (E)-4-(N-(3-((5-carbamoyl-1-(4-(6-carbamoyl-2-(1-ethyl-3-methyl-1H-pyrazol-5-yl)-8-(3-methoxypropoxy)-9H-pyrimido[4,5-b]indol-9-yl)but-2-en-1-yl)-2-(1-ethyl-3-methyl-1H-pyrazole-5-carboxamido)-1H-benzo[d]imidazol-7-yl)oxy)propyl)sulfamoyl)butanoic Acid] it was < 0.05 µM; in that of `CCn1nc(C)cc1C(=O)Nc1nc2cc(C(N)=O)cc(OC)c2n1C/C=C/Cn1c2nc(-c3cc(C)nn3CC)ncc2c2cc(C(N)=O)cc(OCCCNC(=O)CCCC(=O)O)c21` [Example 46, (E)-5-(3-(6-carbamoyl-9-(4-(5-carbamoyl-2-(1-ethyl-3-methyl-1H-pyrazole-5-carboxamido)-7-methoxy-1H-benzo[d]imidazol-1-yl)but-2-enyl)-2-(1-ethyl-3-methyl-1H-pyrazol-5-yl)-9H-pyrimido[4,5-b]indol-8-yloxy)propylamino)-5-oxopentanoic Acid], < 0.05 µM.

By EC50 is commonly meant the concentration giving half of the maximal effect. Higher therefore signals lower potency in that assay.
